Measurements taken from US12178830B2, “Compositions and methods for adoptive cell therapy for cancer” (MEMORIAL SLOAN KETTERING CANCER CENTER, priority 2017, dated 2024).
Where “and” joins values, the source holds several entries; their conditions need not be identical. Equal entries are not always repeated. Where two headings read alike, the source gives them in different places.

Experiments:
[1] = tested on: hepatocellular carcinoma HepG2; assay: CellTitre Glo in vitro cytotoxicity, HepG2; assay type: cell-based
Experimental: This example describes the synthesis of exemplary prodrugs based on sulfamoyladenosine (AMS) (structure 1c) (FIG. 2C) for cleavage by the bacterial hydrolase enzyme CPG2. AMS is a close analog of nucleocidin and a potent cytotoxic molecule (HepG2 IC50=9 nM). […] Based on these SAR data, AMS prodrug 1a (“P-AMS”; FIG. 2C) was synthesized from 2′,3′-O-isopropylidene-5′-O-TBS-adenosine (structure 3, FIG. 2D) by 6-N-acylation with CDI-activated bis-O-t-Bu-glutamate (30%), desilylation (TBAF), sulfamoylation (H2NSO2C1, DMA), and acetonide hydrolysis (TFA, H2O, 15% over 3 steps). Two alternative N-sulfamate-linked prodrugs (not shown) attached via CO-PAB-CO and TML-CO linkers were synthesized (FIG. 2B). A more detailed discussion of the P-AMS synthesis and the synthesis of the N-sulfamate-linked prodrug attached via a TML-CO linker (“Trimethyllock-AMS”) is provided below in this example. As an alternative cytotoxic using a known anticancer therapeutic, the mustard prodrug ZD2767P (structure 2a, FIG. 2C) was also synthesized as previously reported (Springer et al., J Med Chem. 37(15):2361-70(1994) and Niculescu-Duvaz et al., Tetrahedron Lett. 46(40):6919-22 (2005)).
(§1) In vitro cytotoxicity of AMS-related structures was also assessed to determine the modifications of AMS that alter cytotoxicity. The in vitro cytotoxicity of each of these AMS-related structures was tested against both hepatocellular carcinoma HepG2 and normal human fibroblast MRC5 cell lines using a CellTitre Glo® assay (Promega, Madison, WI) The modifications and results are provided in Table 1 below.

[2] = tested on: normal human fibroblast MRC5; assay: CellTitre Glo in vitro cytotoxicity, MRC5; assay type: cell-based
Experimental: as §1

[3] = tested on: HEK293T (kidney); assay: CellTitre Glo in vitro cytotoxicity, HEK293T; assay type: cell-based, human
[4] = tested on: HL 60 (leukemia); assay: CellTitre Glo in vitro cytotoxicity, HL 60; assay type: cell-based
Experimental: (§2) The in vitro cytotoxicity of AMS (structure 1c) and its prodrug variant (structure 1a) was tested against a variety of cell lines using a CellTitre Glo® assay (Promega, Madison, WI). […] Moreover, co-treatment with the prodrug and supernatant from CPG2-transfected HEK293T cells (see Example 3) led to cytotoxicity approaching that of the free drug (50 nM), consistent with CPG2-mediated cleavage of the prodrug to release the active parent drug. […] In contrast, AMS prodrug 1a was not activated by HEK293T cells expressing CPG intracellularly, which likely attributed to poor cell-penetrance of the prodrug due to the free bis-anionic gluatamate moiety.

[5] = tested on: Jurkat (T cell); assay: CellTitre Glo in vitro cytotoxicity, Jurkat; assay type: cell-based, human
[6] = tested on: primary T-cells; assay: CellTitre Glo in vitro cytotoxicity, primary T cells; assay type: cell-based, human
[7] = tested on: myeloid leukemia cell line SET2; assay: CellTitre Glo in vitro cytotoxicity, SET2; assay type: cell-based; conditions: Set2; prodrug vs AMS
[8] = tested on: SET2 cells; assay: SET2 viability with prodrug plus recombinant enzyme or enzyme-containing supernatant; assay type: cell-based; conditions: Beta-lactamase supernatant; control media did not
Experimental: Recombinant CPG2 protein was initially synthesized, purified (FIGS. 18A and 18B), and incubated with increasing concentrations of prodrug in a glutamate release assay (FIG. 17C). Mass spectrometry was used to determine that the glutamate moiety was released from all of the glutamate prodrugs. The in vitro cytotoxicity of the prodrugs (FIG. 17B) were tested against the myeloid leukemia cell line SET2 using a CellTitre Glo® assay (Promega, Madison, WI).
SET2 cells were exposed to increasing concentrations of AMS (square) or glut-AMS with media alone (− control, triangle) or supernatant from CPG2-secreting HEK293t cells (circle). Cell viability was measured by CellTitre-Glo® luminescence assay.
Thus, antigen-dependent expansion of SEAKER T cells results in increased output of enzyme into the extracellular milieu.
To determine to respective enzyme output of the Beta-lactamase constructs relative to the previous CPG2 constructs, a quantitative sandwich ELISA was used to determine the concentration (ng/mL) of purified recombinant CPG2, and a quantitative nitrocefin assay was used to determine the concentration (ng/mL) of purified recombinant Beta-lactamase (FIG. 25A). Cell viability was measured by CellTitre-Glo® luminescence in the presence of prodrug (glut-AMS or ceph-AMS) and varying concentrations of purified recombinant CPG2 or Beta-lactamase (FIG. 25B).

[9] = Cell permeability in CACO-2 cells; assay type: in vitro ADME, human; conditions: human
[10] = tested on: non-small cell lung carcinoma cell line PC9; assay: CellTitre-Glo viability, PC9; assay type: cell-based, human
Experimental: FIG. 14 provides exemplary data showing that Human T cells, but not cancer cells, are resistant to Erlotinib. (A) Human Jurkat T cells (red circle) and human non-small cell lung carcinoma cell lines PC9 (black square) and HCC827 (blue triangle) were treated with increasing concentrations of the receptor tyrosine kinase inhibitor Erlotinib. […] Cell viability was measured at 48 hours by CellTitre-Glo® luminescence.
FIG. 14 provides exemplary data showing that Human T cells, but not cancer cells, are resistant to Erlotinib. Human Jurkat T cells, primary T cells and human non-small cell lung carcinoma cell lines PC9 and HCC827 were treated with increasing concentrations of the receptor tyrosine kinase inhibitor Erlotinib. […] PC9 cells were incubated in the presence of Erlotinib, P-Erlotinib, or P-Erlotinib in the presence of purified CPG2. Cell viability was measured at 48 hours by CellTitre-Glo® luminescence.

[11] = tested on: lung adenocarcinoma cells (HCC827); assay: Co-culture of GFP+ 293tCPGTM cells with HCC827 plus erlotinib prodrug; assay type: cell-based; conditions: 293tCPGTM:HCC827 various ratios, 120 hr
Experimental: FIG. 15 provides exemplary data showing the pro-drug activity of 293T cells expressing transmembrane CPG2. GFP+293t^CPGTM cells were co-cultured with lung adenocarcinoma cells (HCC827) at various ratios (293t^CPGTM:HCC827) and the erlotinib prodrug (p-erlotinib) was added. (A) Cells were analyzed at 120 hour by flow cytometry and % GFP was calculated. (B) Ratio of 293t^CPGTM cells to HCC827 cells was calculated for each cell ratio.
The retroviral constructs encoding the anti-CD19 CAR and transmembrane CPG2 enzyme described above were transduced into 293T cells to test the conversion activity of transmembrane CPG2 for an Erlotinib prodrug. GFP+293t^CPGTM cells were co-cultured with lung adenocarcinoma cells (HCC827) at various ratios (293t^CPGTM:HCC827) and the erlotinib prodrug (p-erlotinib) was added. Cells were analyzed at 120 hr. by flow cytometry (FIG. 15A) and the percentage of GFP cells and the ratio of 293t^CPGTM cells to HCC827 cells was calculated for each cell ratio (FIG. 15B).

[12] = tested on: Jurkat T cells; assay: Jurkat viability with prodrug plus supernatant from CPG2-secreting HEK293T cells; assay type: cell-based, human
Experimental: as §2
Jurkat T cells were exposed to increasing concentrations of AMS (circle) or Pro-AMS with media alone (triangle) or supernatant from CPG2-secreting HEK293T cells (square). Cell viability was measured at 48 hours by CellTitre-Glo® luminescence assay.
Jurkat T cells were exposed to increasing concentrations of ZD2767P with media alone (triangle) or supernatant from CPG2-secreting HEK293T cells (square). Cell viability was measured at 48 hours by CellTitre-Glo® luminescence assay.

[13] = tested on: non-small cell lung carcinoma cell line HCC827; assay: CellTitre-Glo viability, HCC827; assay type: cell-based, human; conditions: HCC827, 48 hours
Experimental: Human Jurkat T cells, primary T cells and human non-small cell lung carcinoma cell lines PC9 and HCC827 were treated with increasing concentrations of the receptor tyrosine kinase inhibitor Erlotinib. […] Cell viability was measured at 48 hours by CellTitre-Glo® luminescence.

[14] = Caco-2, with Ver (so in the source), concentration not stated, + Ver

| SMILES | IC50 ([1]; read-out: IC50, HepG2) | IC50 [2] | further results |
| --- | --- | --- | --- |
| Nc1nc2c(ncn2[C@@H]2O[C@H](COS(N)(=O)=O)[C@@H](O)[C@H]2O)c(=O)[nH]1 [GMS] | > 500 µM | > 500 µM | – |
| Nc1ncnc2c1ncn2[C@@H]1O[C@H](CNS(N)(=O)=O)[C@@H](O)[C@H]1O [AMSN] | 0.36 µM | 0.39 µM | – |
| Nc1nc(Nc2ccccc2)nc2c1ncn2[C@@H]1O[C@H](COS(N)(=O)=O)[C@@H](O)[C@H]1O [2-NHPh-AMS] | > 500 µM | 124 µM | – |
| Nc1ncnc2c1ncn2[C@@H]1O[C@H](COS(N)(=O)=O)[C@@H](O)[C@H]1O [AMS] | – | 0.03 µM | IC50 ([1]; read-out: HepG2 IC50): 0.009 µM; IC50 ([3]; HEK293T, read-out: IC50): 0.666 µM; IC50 [4]: 0.07 µM; IC50 ([5]; Jurkat, read-out: IC50): 0.018 µM; IC50 ([6]; primary T-cells, read-out: IC50): 0.066 µM |
| Nc1nc(N)c2ncn([C@@H]3O[C@H](COS(N)(=O)=O)[C@@H](O)[C@H]3O)c2n1 [2-NH2-AMS] | < 1 µM and 1.75 µM | < 1 µM and 1.17 µM | – |
| Nc1ncnc2c1ncn2[C@@H]1O[C@H](COS(=O)(=O)NCC2=C(C(=O)O)N3C(=O)[C@@H](NC(=O)Cc4cccs4)[C@H]3SC2)[C@@H](O)[C@H]1O [ceph-AMS] | – | – | Selective Index ([3]; HEK293t, prodrug vs AMS): ~3; Selective Index ([6]; Human T cell, prodrug vs AMS): >6; Selective Index [7]: ~64; SET2 cell viability with prodrug and Beta-lactamase supernatant [8]: significant decrease in cell viability |
| CN(C)C(=O)C(CCN1CCC(O)(c2ccc(Cl)cc2)CC1)(c1ccccc1)c1ccccc1 [Loperamide] | – | – | Papp A→B [9, 14]: 10.5 ± 1.5 ×10⁻⁶ cm/s; Papp B→A [9, 14]: 7.8 ± 0.5 ×10⁻⁶ cm/s; Papp A→B ([9]; Caco-2): 2.2 ± 0.3 ×10⁻⁶ cm/s; Papp B→A ([9]; Caco-2): 16.9 ± 1.1 ×10⁻⁶ cm/s |
| C#Cc1cccc(N(Cc2ccc(NC(=O)N[C@@H](CCC(=O)O)C(=O)O)cc2)c2ncnc3cc(OCCOC)c(OCCOC)cc23)c1 [P-Erlotinib, ((4-(((6,7-bis(2-methoxyethoxy)quinazolin-4-yl)(3-ethynylphenyl)amino)methyl)phenyl)carbamoyl)-L-glutamic acid] | – | – | toxicity in PC9 cells ([10]; 1 μM, without CPG2, 48 hours): no toxicity; activity of cleaved prodrug in PC9 cells ([10]; in the presence of purified CPG2, 48 hours): comparable activity to the active drug; killing in co-culture with transmembrane CPG2 cells [11]: kills the target cancer cell, but not the cell secreting the enzyme |
| Nc1ccn([C@@H]2O[C@H](COS(N)(=O)=O)[C@@H](O)[C@H]2O)c(=O)n1 [CMS] | > 500 µM | > 500 µM | – |
| Nc1ncnc2c1ncn2[C@H]1C[C@H](O)[C@@H](COS(N)(=O)=O)O1 [2′-deoxy-AMS] | < 1 µM and 0.55 µM | – | – |
| Cc1cn([C@H]2C[C@H](O)[C@@H](COS(N)(=O)=O)O2)c(=O)[nH]c1=O [TMS] | > 500 µM | > 500 µM | – |
| Nc1ncnc2c1nc(Cl)n2[C@@H]1O[C@H](COS(N)(=O)=O)[C@@H](O)[C@H]1O [8-Cl-AMS] | – | 3.2 µM and 3.51 µM | – |
| NS(=O)(=O)OC[C@H]1O[C@@H](n2ccc(=O)[nH]c2=O)[C@H](O)[C@@H]1O [UMS] | > 500 µM | > 500 µM | – |
| CN(C)c1ncnc2c1ncn2[C@@H]1O[C@H](COS(N)(=O)=O)[C@@H](O)[C@H]1O [6-NMe2-AMS] | > 500 µM | > 500 µM | – |
| Nc1nc(-c2ccccc2)nc2c1ncn2[C@@H]1O[C@H](COS(N)(=O)=O)[C@@H](O)[C@H]1O [2-phenyl-AMS] | ~500 µM | > 500 µM | – |
| O=C(O)CC[C@H](NC(=O)Oc1ccc(N(CCI)CCI)cc1)C(=O)O [ZD2767P] | – | – | cell viability with prodrug and CPG2 supernatant ([12]; increasing prodrug, 48 hours, supernatant from CPG2-secreting HEK293T cells): significant decrease in cell viability; IC50 ([12]; with CPG2 supernatant): 1.7 µM |
| NS(=O)(=O)OC[C@H]1O[C@@H](n2cnc3c(NC4CC4)ncnc32)[C@H](O)[C@@H]1O [6-NCyp-AMS] | 10.9 µM | 7.2 µM | – |
| COc1ncnc2c1ncn2[C@@H]1O[C@H](COS(N)(=O)=O)[C@@H](O)[C@H]1O [6-OMe-AMS] | 141 µM | 129 µM | – |
| NS(=O)(=O)OC[C@H]1O[C@@H](n2cnc3c(O)ncnc32)[C@H](O)[C@@H]1O [IMS] | > 500 µM | > 500 µM | – |
| C#Cc1cccc(Nc2ncnc3cc(OCCOC)c(OCCOC)cc23)c1 [Erlotinib, reference compound] | – | – | response to increasing concentrations ([5]; T cell lines (Jurkat), 48 hours): exhibited resistance; response to increasing concentrations ([6]; primary T cells): exhibited resistance; response to increasing concentrations ([10]; PC9, 48 hours): significant cell death; response to increasing concentrations [13]: significant cell death |
| CNc1ncnc2c1ncn2[C@@H]1O[C@H](COS(N)(=O)=O)[C@@H](O)[C@H]1O [6-NHMe-AMS] | 1.8 µM | 0.9 µM | – |
| CCCc1nc2c(N)ncnc2n1[C@@H]1O[C@H](COS(N)(=O)=O)[C@@H](O)[C@H]1O [8-propyl-AMS] | > 500 µM | > 500 µM | – |
